Our source for the IC50 values is EP0004335A2, “Prostacyclin analogs, process and intermediates for their preparation and their use as medicines” (HOECHST AKTIENGESELLSCHAFT, priority 1978, dated 1979).

Each structure is given as a SMILES string.

The test relates to durch Arachidonsäure in Humanblut (in vitro) induzierten Thrombocytenaggregation. Kind of test: Inhibition of arachidonic acid-induced platelet aggregation in human blood (in vitro). The test is classed as cell-based. The conditions noted are these: Konzentration, die eine Aggregation von 50% der vorhandenen Thrombocyten verhindert. An excerpt: Die Thrombocyten aggregationshemmende Wirkung der erfindungsgemäßen Verbindungen wurde an der durch Arachidonsäure in Humanblut (in vitro) induzierten Thrombocytenaggregation ermittelt. In der folgenden Tabelle ist die Konzentration an dem jeweiligen Prostacyclin-Derivat angegeben, die eine Aggregation von 50% der vorhandenen Thrombocyten verhindert (IC50).
Turning to `COC(=O)CCCC=C1CC2C(CC(O)C2C=CC(O)C(C)(C)OC2CCCCC2)O1` (stereo not drawn) [Beispiel 2 e), 16-Cyclohexyloxy-16-methyl-18,19-20-trinor-PGI -methylester], it took 10000 nM to reach half-maximal inhibition (IC50). In other words, the double-digit micromolar range.
As for `COCCC(C)(C)C(O)C=CC1C(O)CC2OC(=CCCCC(=O)O)CC21` (stereo not drawn) [Beispiel 3 a), Kaliumsalz des 16,16-Dimethyl-19-oxa-PGI2], the figure is 1200 nM; as for `CCOCC(C)(C)C(O)C=CC1C(O)CC2OC(=CCCCC(=O)O)CC21` (stereo not drawn) [Beispiel 3 b), Natriumsalz des 16,16-Dimethyl-18-oxa-PGI2], 540 nM.
